Measurements taken from patent US20240148728A1, “NOVEL METHOD TO BLOCK IN[…] DEATH AND IL-1BETA SECRETION CAUSED BY […] UV I[…] GENETIC AND CHEMICAL INHIBITORS OF ZAKA AND THE NLRP1 INFLAMMASOME” (priority 2021, published 2024).
Entries after “also recorded” stand apart in the source; their conditions may differ.

Experiments:
[1] = test system: immortalized keratinocytes (N-TERT); assay: Pyroptosis / apoptosis in N-TERT keratinocytes (morphology, ASC-GFP, PI, Annexin V, immunoblot); assay type: cell-based, human
Source text: The following antibodies were used in this study: cleaved PARP1 (Abclonal, #WH162766), Cleaved CASP3 (Abclonal, #WH154646), Full length GSDMD-FL (Abcam, #ab210070), IL1β p17 specific (CST, #83186S), CARD8 (Abcam, CARD8-NT: ab19485, CARD8-CT: ab241186), DPP9 (Abcam, ab226334), c-Myc (Santa Cruz Biotechnology, #sc-40), HA tag (Santa Cruz Biotechnology, #sc-805), GAPDH (Santa Cruz Biotechnology, #sc-47724), ASC (Adipogen, #AL-177), CASP1 (Santa Cruz Biotechnology, #sc-622), 11_1B (R&D systems, #AF-201), FLAG (SigmaAldrich, #F3165), NLRP1 (R&D systems, #AF6788), IL18 (Abcam ab207324), cleaved GSDMD-NT (Asp275) (Cell Signaling Technology, #36425), RPL31 (Abclonal, #WH162766), CASP7 (Abcam, ab255818), CASP8 (Abcam, ab32397), cleaved CASP3 (Cell Signaling Technology, #9664). All horseradish peroxidase (HRP)— conjugated secondary antibodies were purchased from Jackson Immunoresearch (goat anti-mouse IgG: 115-035-166; goat anti-rabbit IgG: 111-035-144; and donkey anti-goat IgG: 705-005-147). Blue-Native PAGE was carried out using the Native-PAGE system (ThermoFisher) with 10-20 μg of total lysate. For SDS-PAGE using whole cell lysates, cells were resuspended in tris-buffered saline 1% NP-40 with protease inhibitors (Thermo Scientific, #78430). Protein concentration was determined using the Bradford assay (Thermo Scientific, #23200) and […] of protein loaded, a part from cleaved GSDMD-NT visualisation where […] of protein was used. All primary antibodies were used at 250 ng/ml. Visualisation of ASC oligomerization was previously described (Robinson et al., 2020). For analysis of IL1β and IL-18 cleavage in the media by immunoblotting, samples were concentrated using filtered centrifugation (Merck, Amicon Ultra, #UFC5003BIK). Protein samples were run using immunoblotting, and then visualized using a ChemiDoc Imaging system (Bio-Rad). PhosTag SDS-PAGE was carried out using homemade 10% SDS-PAGE gel, with addition of Phos-tag Acrylamide (Wako Chemicals, AAL-107) to a final concentration of 30 μM and manganese chloride(II) (Sigma-Aldrich, #63535) to 60 μM.
N-TERT-ASC-GFP cells were seeded at a cell density of 3000 cells/well of a 96 black well plate (PerkinElmer, CellCarrier-96 Ultra, #6055300). The next morning cells were treated with chemicals for 6 h or treated in the evening for 24 h before staining. 1 hour before observing the cells on the microscope the cells were stained with 1 μg/ml dilution of propidium iodide (PI, Abcam #ab14083), 10 ng/ml dilution of Hoechst 33342 (Life Technologies, #H21492) or stained with Annexin V Alexa Flour 647 (Life technologies, #A23204) according to the manufacturer's protocol. Stained cells were then imaged on a high content screening microscope (Perkin Elmer Operetta CLS imaging system). Images were then stored and analyzed using the Harmony software (Version 6). Fluorescent and brightfield images acquired on the Operetta high content screening microscope were further analyzed using a scoring system to categorize the percentages of live, apoptotic and pyroptotic cells. For 3 fields of view per treatment the number of live cells per field was counted from the merge of the brightfield and ASC-GFP channels. Only cells which contained ASC-GFP throughout the cytoplasm and nucleus were classed as “live”. The number of pyroptotic cells was calculated using the merge of the brightfield and ASC-GFP channels. Only the cells with GFP specks were classed as “pyroptotic”. The number of apoptotic cells was calculated using the merge of the brightfield, ASC-GFP and Annexin V channels. Cells that were stained positive for Annexin V but without a GFP speck were classified as “apoptotic”. Images of ASC-GFP specks were acquired in 3 random fields in 4′,6-diaminidino-2-phenylindole (DAPI, 358 nm/461) and GFP (469 nm/525 nm) channels using the EVOS microscope (FL Auto M5000, #AM F5000) according to the manufacturer's protocol. […]

[2] = test system: mouse bone marrow derived macrophages (BMDMs); assay: ANS-triggered IL1β secretion and cell death in mouse bone marrow derived macrophages; assay type: cell-based
N-TERT cells = assay: Secreted IL1β / inflammasome activation in N-TERT cells; assay type: cell-based, human
ASC = assay: Phosphorylation of inflammasome adaptor ASC; assay type: cell-based, human; conditions: data not shown

## COc1ccc(C[C@H]2NC[C@H](O)[C@H]2OC(C)=O)cc1 [ANS, Anisomycin]
[1]; Annexin V staining and PI inclusion, immunoblot markers
  mode of cell death (apoptosis / pyroptosis): caused both apoptosis and pyroptosis; also recorded: activate both forms of cell death
[1]; NLRP1 KO N-TERT, Annexin V and PI staining
  mode of cell death in NLRP1 KO cells: died exclusively through apoptosis
[1]; immunoblot
  apoptotic cell death (cleaved caspase-3 and PARP-1): activated classical apoptotic cell death
  biochemical hallmarks of inflammasome activation (ASC polymerization, GSDMD-NT, IL1β p17 in media): displayed cardinal biochemical hallmarks of inflammasome activation
[1]; membrane ballooning, ASC-GFP specks, PI uptake
  morphological hallmarks of inflammasome activation and pyroptotic cell death: rapidly induced the morphological hallmarks of inflammasome activation and pyroptotic cell death
[1]; single cell level, compared with VbP
  fraction of pyroptotic cells: comparable to that induced by VbP
[2]
  IL1β secretion and cell death, wild-type versus Nlrp1a/b KO: did not differ between wild-type and NIrp1a/b KO
N-TERT cells; ZAKα KO N-TERT cells
  IL1β secretion and pyroptotic death in ZAKα KO cells: completely resistant
N-TERT cells; ultra-high doses of ANS
  IL1β secretion at high concentration versus lower doses: significant decrease in IL1β secretion as compared to lower doses
ASC
  phosphorylation of ASC: not phosphorylated
